Like-named read-outs stand apart in the source and are kept apart here.
Tests used:
[1] = target: Full length wild-type cereblon CRBN (Homo sapiens (Human), UniProt Q96SW2); assay: Fluorescence polarization (FP) assay, cereblon binding
Experimental: Compound activity was monitored in a fluorescence polarization (FP) homogeneous assay using 1-[5-({2-[2-(2-{[2-(2,6-dioxopiperidin-3-yl)-1,3-dioxo-2,3-dihydro-1H-isoindol-4-yl]oxy}acetamido)ethoxy]ethyl}carbamoyl)pentyl]-3,3-dimethyl-2-[(1E,3E)-5-[(2E)-1,3,3-trimethyl-5-sulfo-2,3-dihydro-1H-indol-2-ylidene]penta-1,3-dien-1-yl]-3H-indol-1-ium-5-sulfonate as a fluorescent probe. Unless otherwise stated, all reagents were purchased from Sigma Aldrich. Enzymatic reactions were conducted in Perkin-Elmer Black 384 well ProxiPlate Plus (catalogue no. 6008269) in 10 sL total volume. Full length wild-type cereblon CRBN (80.0 nM, 10 sL) was incubated in assay buffer containing 20 mM HEPES (pH 8.0), […], 0.5 mM TCEP and 0.05% Tween 20 in the presence or absence of compound (300 nL). Inhibitors were stored as 10 mM DMSO stocks in an inert environment (low humidity, dark, low oxygen, room temperature) using the Storage Pod System.
Compounds and DMSO were dispensed using the Echo E5XX (Labcyte Inc. USA) to give concentrations from 300 to 0.937 or 3000 to 9.3 nM in a 12 data point curve. […] Following incubation at room temperature for 30 min, the assay was initiated by dispensing the probe to a final concentration of 5 nM (2.5 nL of a 20 μM stock) using the Echo E5XX. FP was measured after a period of 12 hours using a Pherastar plate reader (BMG Labtech, Germany) exciting at 590 nm and measuring the amount of parallel and perpendicular light at 675 nm. The FP signal was subsequently normalized to the no-compound control (i.e., DMSO). Analysis and IC50 values were derived using Dotmatics (Dotmatics UK) software.

[2] = target: GSPT1 (Homo sapiens (Human), UniProt P15170+Q96SW2); assay: Immunofluorescence assay for GSPT1 degradation in CAL-Si cells; format: cell-based; conditions: CAL-Si cells
GSPT1, sequence (P15170 whole entry): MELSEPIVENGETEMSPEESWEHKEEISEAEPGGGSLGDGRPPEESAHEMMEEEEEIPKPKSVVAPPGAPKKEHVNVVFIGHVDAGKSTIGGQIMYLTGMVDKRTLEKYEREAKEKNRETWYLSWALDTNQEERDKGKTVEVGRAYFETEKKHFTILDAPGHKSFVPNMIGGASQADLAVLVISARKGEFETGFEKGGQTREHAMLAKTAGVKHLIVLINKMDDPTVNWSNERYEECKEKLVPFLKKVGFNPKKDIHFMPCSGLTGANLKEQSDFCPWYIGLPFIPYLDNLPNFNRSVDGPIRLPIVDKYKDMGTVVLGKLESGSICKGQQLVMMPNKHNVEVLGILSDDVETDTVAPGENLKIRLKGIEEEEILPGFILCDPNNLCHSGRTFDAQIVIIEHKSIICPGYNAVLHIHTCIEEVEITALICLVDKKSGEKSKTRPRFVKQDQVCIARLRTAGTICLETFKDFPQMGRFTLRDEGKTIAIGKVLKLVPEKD
GSPT1, sequence (Q96SW2 whole entry): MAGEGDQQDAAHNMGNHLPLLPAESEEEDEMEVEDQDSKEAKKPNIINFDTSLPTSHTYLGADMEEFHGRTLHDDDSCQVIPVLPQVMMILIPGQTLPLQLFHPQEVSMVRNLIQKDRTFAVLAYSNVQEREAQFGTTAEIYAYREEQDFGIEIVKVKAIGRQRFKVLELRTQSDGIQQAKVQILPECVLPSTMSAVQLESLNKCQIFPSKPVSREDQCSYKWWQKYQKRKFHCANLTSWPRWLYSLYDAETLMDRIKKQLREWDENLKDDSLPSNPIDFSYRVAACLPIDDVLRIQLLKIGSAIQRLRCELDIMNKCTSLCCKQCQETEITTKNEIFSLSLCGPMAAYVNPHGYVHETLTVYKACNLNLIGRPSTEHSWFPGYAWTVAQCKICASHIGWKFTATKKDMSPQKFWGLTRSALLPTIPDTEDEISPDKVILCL
GSPT1, sequence (Q16531 whole entry partner): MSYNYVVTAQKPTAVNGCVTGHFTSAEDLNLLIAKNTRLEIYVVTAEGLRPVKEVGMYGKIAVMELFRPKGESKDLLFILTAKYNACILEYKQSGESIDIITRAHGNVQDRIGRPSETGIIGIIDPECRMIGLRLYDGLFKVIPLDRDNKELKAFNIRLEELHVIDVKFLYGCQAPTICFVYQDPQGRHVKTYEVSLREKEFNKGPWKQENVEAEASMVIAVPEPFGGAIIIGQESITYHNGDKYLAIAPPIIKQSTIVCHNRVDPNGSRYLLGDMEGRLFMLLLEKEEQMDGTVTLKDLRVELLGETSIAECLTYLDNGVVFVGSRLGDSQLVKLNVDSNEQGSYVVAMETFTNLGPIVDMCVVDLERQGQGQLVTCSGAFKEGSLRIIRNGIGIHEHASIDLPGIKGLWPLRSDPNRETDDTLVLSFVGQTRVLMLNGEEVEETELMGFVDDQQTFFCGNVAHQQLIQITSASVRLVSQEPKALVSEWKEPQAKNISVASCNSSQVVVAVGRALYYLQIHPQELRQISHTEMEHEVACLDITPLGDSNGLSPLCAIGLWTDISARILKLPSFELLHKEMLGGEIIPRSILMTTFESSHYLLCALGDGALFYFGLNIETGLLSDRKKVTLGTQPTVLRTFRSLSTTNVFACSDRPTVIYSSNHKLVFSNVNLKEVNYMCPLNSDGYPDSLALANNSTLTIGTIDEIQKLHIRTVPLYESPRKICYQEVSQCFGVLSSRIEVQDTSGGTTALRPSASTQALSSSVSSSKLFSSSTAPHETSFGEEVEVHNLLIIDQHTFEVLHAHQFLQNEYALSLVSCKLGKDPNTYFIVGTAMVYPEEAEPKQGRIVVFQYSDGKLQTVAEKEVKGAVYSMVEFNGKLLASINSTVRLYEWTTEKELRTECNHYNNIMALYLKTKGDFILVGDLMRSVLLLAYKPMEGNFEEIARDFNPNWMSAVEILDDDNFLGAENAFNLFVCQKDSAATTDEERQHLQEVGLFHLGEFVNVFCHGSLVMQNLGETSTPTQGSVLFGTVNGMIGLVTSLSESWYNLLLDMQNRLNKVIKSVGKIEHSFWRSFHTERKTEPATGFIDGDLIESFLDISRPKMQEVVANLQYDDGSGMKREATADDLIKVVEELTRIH
Experimental: The compounds were tested in an immunofluorescence assay for their activity to bind to degrade GSPT1. CAL-Si cells were purchased from DSMZ (cat. Number ACC302), sub-cultured in 90% Dulbecco's MEM (4.5 g/L glucose, Gibco 11965)+10% heat inactivated FBS (BioConcept, 2-01F136I) and incubated at 37° C., 5% CO2. For the assay, imaging microtiterplate Cell Carrier 96 Ultra (Perkin Elmer 6055302) were pre-coated with Fibronectin (Sigma F085, 30 μl at 0.2 μg/ml) in PBS (100 μl, Gibco 14190) for 45 min at room temperature, rinsed with PBS and CAL-Si cells (30K cells/well) were plated and let to adhere overnight. Cells were treated with compounds typically using a serial dilution ranging from 30 μM to 0.1 nM for 6 hours. Compounds were stored at 10 mM DMSO stocks. Vehicle (DMSO), positive (CC-885, 10 μM) and rescue controls (positive control plus 0.2 μM bortezomib) were also included at this stage. Cells were subsequently rinsed with PBS and fixed in 10% Formalin solution (50 μl, Sigma HT5011)) for 20 mins at room temperature. Following three consecutive PBS washes (100 μl), cells were permeabilized in 0.1% Triton X-100 in PBS (Sigma 93443, 50 μl) for 15 mins at room temperature. Following three further PBS washes, 50 μl blocking buffer (1% BSA, Sigma A4503, in PBS) was added for 45 min for signal-to-noise reduction.
Primary antibody (human GSPT1, Sigma HPA052488) was diluted in blocking buffer (dil.1/300, 35 μl/well) and incubated with the cells overnight at 4° C. After three PBS washes, Alexa-fluor 488 coupled secondary antibodies (Invitrogen, A32731, dil.1/1000), Alexa-fluor 647-Phalloïdin (Invitrogen, A22287, dil.1/200) and DAPI (Thermo, #62248, dil.1/1000) were diluted in blocking buffer and incubated with the samples for 2 hours at room temperature. After three final PBS washes, samples were conserved in 100 μl PBS in the dark, until measurement. Image acquisition was performed on the Operetta High-Content Imager (Perkin-Elmer). Fluorescence intensity of Alexa-Fluor 488 (GSPT1), Alexa-Fluor 647 (Actin) and DAPI (Nucleus) were measured. For the determination of GSPT1 DC50 values, a custom algorithm implemented in the PerkinElmer image analysis software Harmony-Acapella® was developed. After user-defined setting of adjustment parameters, the analysis was run identically without human intervention for all image fields. DAPI staining of the nuclei was used to determine the location of cells using standard nuclei detection modules. Segmentation artifacts were removed by threshold-based filters for area, roundness and intensity. The outline of the cells was determined analogously from the sum of the normalized, smoothed DAPI and Actin channel, starting from each nucleus. The Alexa-Fluor 488 (GSPT1) signal intensity in each cell was finally measured, in order to obtain a Mean intensity per cell. GSPT1 degradation (DC50) was calculated after normalization to controls and data import in CDD vault Database, using non-linear regression.

[3] = cereblon binding, bound, read-out: IC50 value
[4] = wild-type CRBN 80.0 nM, probe 5 nM, FP measured after 12 hours, read-out: rFP IC50
[5] = treated 6 hours, read-out: Code, activity for GSPT1 degradation (DC50)
[6] = compounds with code A, read-out: DC50 value code

Full length wild-type cereblon CRBN, sequence (Q96SW2 whole entry): as the sequence (Q96SW2 whole entry) above

O=C1CCC(N2Cc3c(F)cc(COC(=O)Nc4cccc(OC(F)F)c4)cc3C2=O)C(=O)N1 (stereo not drawn) [Compound 26, (2-(2,6-dioxopiperidin-3-yl)-7-fluoro-3-oxoisoindolin-5-yl)methyl(3-(difluoromethoxy)phenyl)carbamate] was tested, and the IC50 [1, 3] was under 600 nM, the IC50 [1, 4] was 1200 to 1900 nM and the DC50 [2, 5] was 30 to 300 nM.

O=C1CCC(N2Cc3c(F)cc(COC(=O)Nc4cc(Cl)cc(Cl)c4)cc3C2=O)C(=O)N1 (stereo not drawn) [Compound 28, (2-(2,6-dioxopiperidin-3-yl)-7-fluoro-3-oxoisoindolin-5-yl)methyl(3,5-dichlorophenyl)carbamate] was tested, and the IC50 [1, 4] was over 1900 nM and the DC50 [2, 5] was 30 to 300 nM.

With Cc1cc(C)cc(NC(=O)OCc2cc(F)c3c(c2)C(=O)N(C2CCC(=O)NC2=O)C3)c1 (stereo not drawn) [Compound 31, (2-(2,6-dioxopiperidin-3-yl)-7-fluoro-3-oxoisoindolin-5-yl)methyl (3,5-dimethylphenyl)carbamate] the IC50 [1, 4] was over 1900 nM and the DC50 [2, 5] was 30 to 300 nM.

O=C1CCC(N2Cc3c(F)cc(COC(=O)Nc4cc(Cl)cc(OC(F)F)c4)cc3C2=O)C(=O)N1 (stereo not drawn) [Compound 34, (2-(2,6-dioxopiperidin-3-yl)-7-fluoro-3-oxoisoindolin-5-yl)methyl(3-chloro-5-(difluoromethoxy)phenyl)carbamate] gave an IC50 [1, 4] of over 1900 nM and a DC50 [2, 5] of 30 to 300 nM.

Work on Cc1ccc(NC(=O)OCc2cc(F)c3c(c2)C(=O)N(C2CCC(=O)NC2=O)C3)cc1OC(F)F (stereo not drawn) [Compound 35, (2-(2,6-dioxopiperidin-3-yl)-7-fluoro-3-oxoisoindolin-5-yl) methyl (3-(difluoromethoxy)-4-methylphenyl)carbamate] yielded an IC50 [1, 4] of over 1900 nM, a DC50 [2, 6] of under 30 nM and a DC50 [2, 5] of under 30 nM.

Molecule COc1cc(COC(=O)Nc2ccc(-c3ccccc3F)nc2)cc2c1CN(C1CCC(=O)NC1=O)C2=O (stereo not drawn) [Compound 36, (2-(2,6-dioxopiperidin-3-yl)-7-methoxy-3-oxoisoindolin-5-yl)methyl (6-(2-fluorophenyl)pyridin-3-yl)carbamate] has an IC50 [1, 3] of under 600 nM, an IC50 [1, 4] of 1200 to 1900 nM and a DC50 [2, 6] of under 30 nM. For the same molecule, the DC50 [2, 5] was under 30 nM.

Molecule COc1cc(COC(=O)Nc2ccc3c(c2)OCC3(C)C)cc2c1CN(C1CCC(=O)NC1=O)C2=O (stereo not drawn) [Compound 37, (2-(2,6-dioxopiperidin-3-yl)-7-methoxy-3-oxoisoindolin-5-yl) methyl(3,3-dimethyl-2,3-dihydrobenzofuran-6-yl)carbamate] has an IC50 [1, 3] of under 1200 nM, a DC50 [2, 6] of under 30 nM and a DC50 [2, 5] of under 30 nM.

Molecule COc1cc(COC(=O)Nc2ccc(N3CCCCC3C)nc2)cc2c1CN(C1CCC(=O)NC1=O)C2=O (stereo not drawn) [Compound 38, (2-(2,6-dioxopiperidin-3-yl)-7-methoxy-3-oxoisoindolin-5-yl)methyl(6-(2-methylpiperidin-1-yl)pyridin-3-yl)carbamate] has an IC50 [1, 3] of under 600 nM, an IC50 [1, 4] of at most 600 nM and a DC50 [2, 6] of under 30 nM. It also gave a DC50 [2, 5] of under 30 nM.

COc1cc(COC(=O)Nc2ccc(C3(C)CC3)cc2)cc2c1CN(C1CCC(=O)NC1=O)C2=O (stereo not drawn) [Compound 40, (2-(2,6-dioxopiperidin-3-yl)-7-methoxy-3-oxoisoindolin-5-yl)methyl (4-(1-methylcyclopropyl)phenyl)carbamate] gave an IC50 [1, 3] of under 600 nM, an IC50 [1, 4] of at most 600 nM and a DC50 [2, 6] of under 30 nM. It also gave a DC50 [2, 5] of under 30 nM.

COc1cc(COC(=O)Nc2cc(F)cc(OC(F)(F)F)c2)cc2c1CN(C1CCC(=O)NC1=O)C2=O (stereo not drawn) [Compound 41, (2-(2,6-dioxopiperidin-3-yl)-7-methoxy-3-oxoisoindolin-5-yl)methyl (3-fluoro-5-(trifluoromethoxy)phenyl) carbamate] gave an IC50 [1, 3] of under 600 nM, an IC50 [1, 4] of 1200 to 1900 nM and a DC50 [2, 5] of 30 to 300 nM.

Molecule COc1cc(COC(=O)Nc2ccc(-c3ccccn3)cc2)cc2c1CN(C1CCC(=O)NC1=O)C2=O (stereo not drawn) [Compound 42, (2-(2,6-dioxopiperidin-3-yl)-7-methoxy-3-oxoisoindolin-5-yl)methyl (4-(pyridin-2-yl)phenyl)carbamate] has an IC50 [1, 3] of under 600 nM, an IC50 [1, 4] of 600 to 1200 nM and a DC50 [2, 6] of under 30 nM. The DC50 [2, 5] was under 30 nM.

Molecule COc1cc(COC(=O)Nc2ccc(C(C)(C)C)cc2)cc2c1CN(C1CCC(=O)NC1=O)C2=O (stereo not drawn) [Compound 43, (2-(2,6-dioxopiperidin-3-yl)-7-methoxy-3-oxoisoindolin-5-yl)methyl (4-(tert-butyl)phenyl)carbamate] has an IC50 [1, 3] of under 600 nM, an IC50 [1, 4] of 600 to 1200 nM and a DC50 [2, 6] of under 30 nM. It also gave a DC50 [2, 5] of under 30 nM.

For COc1cc(COC(=O)Nc2ccc(C(C)(C)C)nc2)cc2c1CN(C1CCC(=O)NC1=O)C2=O (stereo not drawn) [Compound 44, (2-(2,6-dioxopiperidin-3-yl)-7-methoxy-3-oxoisoindolin-5-yl)methyl (6-(tert-butyl)pyridin-3-yl)carbamate], the IC50 [1, 3] was under 600 nM, the IC50 [1, 4] was at most 600 nM and the DC50 [2, 6] was under 30 nM. It also gave a DC50 [2, 5] of under 30 nM.

With COc1cc(COC(=O)Nc2ccc(-c3ccccc3)nc2)cc2c1CN(C1CCC(=O)NC1=O)C2=O (stereo not drawn) [Compound 45, (2-(2,6-dioxopiperidin-3-yl)-7-methoxy-3-oxoisoindolin-5-yl)methyl(6-phenylpyridin-3-yl)carbamate] the IC50 [1, 3] was under 600 nM, the IC50 [1, 4] was 600 to 1200 nM and the DC50 [2, 6] was under 30 nM. For the same molecule, the DC50 [2, 5] was under 30 nM.

COc1cc(COC(=O)Nc2ccc(F)c(OC(F)F)c2)cc2c1CN(C1CCC(=O)NC1=O)C2=O (stereo not drawn) [Compound 46, (2-(2,6-dioxopiperidin-3-yl)-7-methoxy-3-oxoisoindolin-5-yl)methyl(3-(difluoromethoxy)-4-fluorophenyl)carbamate] gave an IC50 [1, 3] of under 600 nM, an IC50 [1, 4] of 600 to 1200 nM and a DC50 [2, 5] of 30 to 300 nM.

COc1cc(COC(=O)Nc2ccc(C)c(OC(F)F)c2)cc2c1CN(C1CCC(=O)NC1=O)C2=O (stereo not drawn) [Compound 48, (2-(2,6-dioxopiperidin-3-yl)-7-methoxy-3-oxoisoindolin-5-yl)methyl (3-(difluoromethoxy)-4-methylphenyl) carbamate] showed an IC50 [1, 3] of under 600 nM, an IC50 [1, 4] of 1200 to 1900 nM and a DC50 [2, 5] of 30 to 300 nM.

COc1cc(COC(=O)Nc2cc(Cl)cc(OC(F)F)c2)cc2c1CN(C1CCC(=O)NC1=O)C2=O (stereo not drawn) [Compound 49, (2-(2,6-dioxopiperidin-3-yl)-7-methoxy-3-oxoisoindolin-5-yl)methyl (3-chloro-5-(difluoromethoxy)phenyl)carbamate] was tested, and the IC50 [1, 3] was under 600 nM, the IC50 [1, 4] was 600 to 1200 nM and the DC50 [2, 6] was under 30 nM. It also gave a DC50 [2, 5] of under 30 nM.

COc1cc(COC(=O)Nc2cc(F)cc(Cl)c2)cc2c1CN(C1CCC(=O)NC1=O)C2=O (stereo not drawn) [Compound 50, (2-(2,6-dioxopiperidin-3-yl)-7-methoxy-3-oxoisoindolin-5-yl)methyl(3-chloro-5-fluorophenyl)carbamate] showed an IC50 [1, 3] of under 600 nM, an IC50 [1, 4] of 600 to 1200 nM and a DC50 [2, 6] of under 30 nM. For the same molecule, the DC50 [2, 5] was under 30 nM.
